Assay results published in publication PMC8964423 (Frontiers in Chemistry, 2022).

Experiments:
HeLa = test: Cell viability assay (Ez-cytox; Table 1 says MTT), HeLa; type: cell-based, human; settings: cervical cancer; treated 2 days; mean ± SD (n = 3)
Procedure: (§1) HeLa (ATCC; CCL-2) and CaSki (ATCC; CRL-1550) were cultured in Roswell Park Memorial Institute (RPMI) 1,640 Medium (Gibco; #11875-093) supplemented with heat-inactivated 10% fetal bovine serum (FBS) (Gibco; #16000-044), and 1% penicillin (100 units/mL)/streptomycin (100 μg/mL) solution (Gibco; #15240-062). A375P (ATCC; CRL-3224), HEK293T (ATCC; […] CRL-2541) were cultured in Dulbecco's Modified Eagle's Medium (DMEM) (Gibco; #11995-065) supplemented with heat-inactivated 10% FBS (Gibco; #16000-044), and 1% penicillin/streptomycin solution (Gibco; #15240-062). All types of cells were maintained in 100-mm cell culture dishes in a humidified atmosphere of a 5% CO2 incubator at 37°C. All cells were cultured every 2 days using trypsin (Gibco; #12605-010). […] BF-400-S). […] […]), carboplatin (Sigma; […] After changing the culture medium to 100 μL of fresh culture medium, 10 μL of Ez-cytox solution (Dogen; EZ-BULK150) was added to the 96-well plate. […] Synergy).

HEK293T = test: Cell viability assay, HEK293T; type: cell-based, human; settings: embryonic kidney cells (non-cancer); treated 2 days; mean ± SD (n = 3)
Procedure: as §1

Caski = test: Cell viability assay, CaSki; type: cell-based, human; settings: cervical cancer; treated 2 days; mean ± SD (n = 3)
Procedure: as §1

A375P = test: Cell viability assay, A375P; type: cell-based, human; settings: skin melanoma; treated 2 days; mean ± SD (n = 3)
Procedure: as §1

C8-D1A = test: Cell viability assay, C8-D1A; type: cell-based, murine; settings: normal astrocyte; treated 2 days; mean ± SD (n = 3)
Procedure: as §1

HeLa cells [1] = test: ICP-MS metal accumulation in DNA and proteins of HeLa cells; type: cell-based, human; settings: 10 μM, 1, 2, 4 and 8 h
Procedure: After washing with 1× phospho-buffered saline (PBS, Welgene; ML008-02), HeLa cells harvested by trypsinization (Gibco; #12605-010) were used for either protein or DNA extraction. […] The concentration of the soluble protein fraction was measured by BCA (bicinchoninic acid) protein assay kit (Thermo; #23225). Cell lysates were digested in concentrated HNO3 at 160°C for 3 h and rested at room temperature overnight. The digested cell lysates were diluted in DW to make the final concentration of HNO3 less than 5%. […] The metal accumulations in proteins were expressed as ng Pt or Re/mg protein. In order to quantify metal accumulations in DNA, cells were re-suspended in 300 μL of lysis buffer [100 mM NaCl, 25 mM EDTA (Acros; #11843-5000), 0.5% SDS (w/v) (Acros; #230420100), 0.1 mg/ml proteinase K (Merck; #70663-4CN), and 10 mM Tris-HCl, pH 8.0] and incubated at 50°C overnight. A 300 μL of phenol:chloroform:isoamyl alcohol mixture (25:24:1, Sigma; #77617) was added to cell lysates and shaken vigorously. After centrifugation at 13,000 g for 5 min, upper layer containing DNA, out of two layers, was transferred to a new tube. […] DNA concentration was quantified by measuring the absorbance at 260 nm. […] Metal contents in DNA were quantified by ICP-MS as same method as measuring metal contents in protein. The metal accumulations in DNA were expressed as ng Pt or Re/mg DNA.

HeLa cells [2] = test: Flow cytometry apoptosis analysis (Annexin V-FITC) in HeLa cells; type: cell-based, human; settings: 10 μM TRIP or 50 μM etoposide, 24 h
Procedure: HeLa cells were treated with each compound for the designated time and dose, or transfected with siRNAs using Lipofectamine RNAiMAX (Thermo; #15338100). The cells were trypsinized and re-suspended in PBS containing 2% FBS (Gibco; #16000-044). To measure mitochondrial reactive oxygen species (ROS) and polarization, we stained the same number of re-suspended cells with either 2.5 μM of mitoSOX (Invitrogen; M36008) or 500 nM of TMRE (tetramethylrhodamine ethyl ester) (Invitrogen; T669) at 37°C for 1 h. To measure apoptosis, we also stained the same number of re-suspended cells with Annexin V-FITC Apoptosis Staining and Detection Kit (Abcam; ab14085) according to the manufacturer’s protocol. The stained cells were subjected to flow cytometry analysis using FACSAria II (BD).

CHOP = test: Immunoblotting of CHOP signaling pathways in HeLa cells; type: cell-based, human
Procedure: The concentration of the soluble protein fraction was measured by BCA protein assay kit (Thermo; #23225).

HeLa cells [3] = test: Mitochondrial monitoring in live HeLa cells (mitochondrial fission); settings: 10 μM TRIP, 50 μM Mdivi-1 pre-treated 1 h

Compound | IC50 (HeLa) [µM] | IC50 (HEK293T) [µM] | IC50 (Caski) [µM] | IC50 (A375P) [µM] | IC50 (C8-D1A) [µM] | further results
N.N.O=C([O-])C1(C(=O)[O-])CCC1.[Pt+2] [Carboplatin, carboplatin] | 40.5 ± 2.62 | 49.6 ± 6.99 | 22.73 ± 0.2 | 23 ± 0.85 | 23.66 ± 0.21 | 
N.N.[Cl][Pt][Cl] [Cisplatin, cisplatin] | 9.2 ± 0.38 | 8.33 ± 0.3 | 7.89 ± 0.26 | 8.35 ± 0.37 | 10.2 ± 0.23 | metal accumulation in DNA and proteins (Pt for cisplatin, Re for TRIP) (HeLa cells [1]): induced the DNA platination in a time-dependent manner
COc1cc([C@@H]2c3cc4c(cc3[C@@H](O[C@@H]3O[C@@H]5CO[C@@H](C)O[C@H]5[C@H](O)[C@H]3O)[C@H]3COC(=O)[C@H]23)OCO4)cc(OC)c1O [Etoposide, etoposide] |  |  |  |  |  | mode of cell death (HeLa cells [2]): via apoptosis, not necrosis
COc1cc(-n2c(=S)[nH]c3ccccc3c2=O)c(Cl)cc1Cl [Mdivi-1] |  |  |  |  |  | effect on TRIP-induced CHOP activation (CHOP; 50 μM Mdivi-1 co-treatment with TRIP): accelerated TRIP-induced CHOP activation; effect on thapsigargin-induced CHOP activation (CHOP; Mdivi-1 co-treatment with thapsigargin): did not boost thapsigargin-induced CHOP activation; mitochondrial fission (HeLa cells [3]): could be blocked by Mdivi-1 treatment
C/C=C(/C)C(=O)O[C@H]1C(C)=C2[C@H]([C@@H]1OC(=O)CCCCCCC)[C@@](C)(OC(C)=O)C[C@H](OC(=O)CCC)[C@@]1(O)[C@H]2OC(=O)[C@@]1(C)O [thapsigargin] |  |  |  |  |  | time to activation of p-eIF2α/ATF4 signaling pathway (CHOP; 200 nM thapsigargin): ≤ 1 h; time after which CHOP activation was observed (CHOP; 200 nM thapsigargin or 10 μM TRIP): 2 h
